According to patent US9808434B2, “Compound for treating cancer and diabetes” (CITY OF HOPE, priority 2011, dated 2017):

Experiments:
PBT003 = test: Glioma ATP viability assay, PBT003; format: cell-based; settings: Table 1; 72 hours
Experimental: (§1) Cells of each cell line (U251, U87, PBT-017, PBT018, PBT003 and PBT028) were treated with various concentrations (0˜100 μM) of COH-SR4 for 72 hours. Cell viabilities were determined by ATP viability assays. Data were represented as a ratio to vehicle (DMSO) control, and plotted as mean±SEM (n=12) obtained from 2˜3 experiments (FIG. 34A).
as §1, with “(U87, U251,” for “(U251, U87, PBT-017, PBT018,”, “PVT-017)” for “PBT028)”, “2-3” for “2˜3”, “34B).” for “34A).”

[1] = test system: SKOV3, MADH2744 and A2780 DPPr cells; test: Ovarian cancer cell viability, cellular acid phosphatase activity; format: cell-based, human; settings: 48 hours, 0-10 μM
Experimental: SKOV3 is a cisplatin resistant human ovarian cancer cell line. Human ovarian cancer cells (SKOV3, MADH2744, and […]) were incubated with COH-SR4 at various concentrations (0˜10 μM) or without COH-SR4 for 48 hours. Cells Viabilities were determined by measuring cellular acid phosphatase activities. Data were represented as a ratio to vehicle (DMSO) control.

[2] = test system: human melanoma cells (SK-MEL28, A2058, A101D); test: Oxygen consumption rate in melanoma cells, Seahorse; format: cell-based; settings: 1-10 μM, monitored 2 h
Experimental: Oxygen consumption rate (OCR), a measure of OxPhos, and extracellular acidification rate (ECAR), a measure of lactate production by glycolysis, were measured using a Seahorse Xf^e96 Flux Analyzers (Seahorse Biosciences, North Billerica, Mass.). Cells were seeded in DMEM media in Seahorse 96-well tissue culture plates at a density of 5×10^3 cells/well and allowed to adhere for 24 h. Prior to the assay, the media was changed to unbuffered DMEM containing 25 mM glucose, 1 mM pyruvate and 1 mM glutamine, with 0.2% fatty acid/endotoxin-free BSA (w/v) (pH 7.4) and the cells were equilibrated for 30 min at 37° C. Test compounds were injected during the assay and OCR and ECAR were measured using 2-3 min measurement periods. […] OCR was measured throughout the different injections of the stressors and test compounds (indicated by arrows in the figures).
The importance of mitochondria as oxygen sensors as well as producers of ATP and ROS has recently become a focal point of cancer research. […] OCR was continuously monitored for 2 h. Mitochondria recoupler 6-KCH (200 μM) was added to the assay system prior to injection of COH-SR4 (5 μM) as shown by arrows and OCR of A101D cells were monitored (FIG. 37B). […]

[3] = COH-SR4 in mice serum, HPLC analysis; format: in vivo, mouse; settings: 4 mg/kg oral
Experimental: Hsd: Athymic nude nu/nu mice obtained from Harlan, Indianapolis, Ind. were used for the oral administration of COH-SR4 on lung cancer progression in in-vivo xenograft model. Twelve 10-weeks-old mice were divided into two groups of 6 animals (treated with corn oil (vehicle), and COH-SR4 4 mg/kg b.w.). All animals were subcutaneously injected with 2×10^6 H358 cells in 100 μL of PBS into one flank of each mouse. Treatment was started 10 days after the implantation of cells to see palpable tumor growth. Treatment consisted of 0.1 mg (4 mg/kg b.w.) of COH-SR4/mice in 200 μL corn oil by oral gavage alternate day. Control groups were treated with 200 μL corn oil by oral gavage alternate day. Animals were examined daily for signs of tumor growth and body weights were recorded. […] Tumors were measured in two dimensions using calipers. […] (FIG. 81B). […] Photographs of animals were taken at day 1, day 10, day 14, day 18, day 30 and day 60 after subcutaneous injection, are shown for all groups (FIG. 81D). The absorption of orally administered COH-SR4 in mice was assessed.

O=C(Nc1cc(Cl)cc(Cl)c1)Nc1cc(Cl)cc(Cl)c1 [COH-SR4, 1,3-bis(3,5-dichlorophenyl) urea]
IC50 (PBT003): 1.5 µM
cytotoxicity on regular and cisplatin-resistant ovarian cancer cells [1]: dose-dependent cytotoxicity and anti-proliferative effects
oxygen consumption rate (OCR) [2]: increased OCR in a time-dependent and dose-dependent manner
serum concentration [3]: 1100 ± 300 nM
